For data set [1], the system named is 3T3-L1 adipocytes. Kind of data set: Triglyceride (Oil red O) accumulation during differentiation of 3T3-L1 adipocytes. It counts as cell-based, mouse. As to the method:
3T3-L1 mouse preadipocytes were purchased from the American Type Culture Collection (ATCC). They are cultivated in DHG medium (Dulbecco's modified Eagle's medium+High Glucose 4.5 g/l, GibcoBRL) supplemented with 10% FCS (foetal calf serum, GibcoBRL) and incubated a 37 C+5% CO2 incubator in a humidified atmosphere. For pre-adipocyte differentiation, 3T3-L1 cells were seeded at 50% confluence 3 days before the beginning of the differentiation programme. Confluent cell monolayers (day 0) are switched for 48 h to media containing the adipogenic cocktail: “DHG-L1” medium (DHG that contains 1.5 g/l NaHCO3) supplemented with 10% FCS, 5 μg/ml insulin, 300 μM dibutyryl-cyclicAMP (dbcAMP) and 1 μM dexamethasone. The cells were then refeeded every other day with DHG-L1 containing 10% FCS and 5 μg/ml insulin. At the end, 80-90% of cells were differentiated. […]
To characterize the state of (de)differentiation obtained in the presence of the molecules of interest, triglycerides present in the cells were stained with Oil red O (a dye of the neutral lipids). The absorbance of cell monolayers at 490 nm was measured in a spectrophotometer.

Data set [2] can be described thus: Analysis of steviol metabolites in 24 h human urine after oral stevioside. It is filed as in vivo. The protocol: Urine Fractionation and Derivatisation of steviol containing fractions. The total 24 h urine fraction (between 1124 and 2494 mL) form human subject subjected to a steviol treatment (three days of oral stevioside administration (750 mg per day)) was run over an Amberlite XAD-2 column at about 30 mL/min. The column bed volume was 200 mL which is sufficient for the adsorption of all amphipathic molecules in 24 h urine. The columns were then rinsed with 1 L of distilled water and then eluted with 400 mL MeOH:Acetone (50:50, v/v). The eluate was divided into 4 equal fractions and the solvent was evaporated at reduced pressure at 50° C.
Fractions containing steviol and/or dihydroisosteviol used as internal standard were completely dried; the residues were taken up in dry acetone and derivatized to form the 7-methoxy-coumarinyl esters as described (Minne, V. et al. J. Agr. Food Chem., 2004, 52, 2445-2449). […] After evaporation of the solvent, the residue was dissolved in a known amount of MeOH and HPLC was done using a fluorescence detector (λexc.: 321 nm, λem.: 391 nm) (Minne, V. et al. J. Agr. Food Chem., 2004, 52, 2445-2449). […]
Isolation of larger amounts of steviol glucuronide. […] Samples of each fraction were analysed by TLC using ethyl acetate:ethanol:water (80:30:20) as solvent and compared with steviol glucuronide as a reference compound. […]

Data set [3] concerns hypertensive rats. The note with it: direct intravenous injection; cited from earlier work.

The source of these data is patent US20100099640A1, “TISSUE DEGENERATION PROTECTION” (priority 2007, published 2010).

Turning to `C=C1C[C@@]23CC[C@H]4C(C)(CCC[C@@]4(C)C(=O)O[C@@H]4O[C@H](CO)C(O)[C@H](O)C4O)[C@@H]2CCC1(OC1O[C@H](CO)C(O)C(O)C1OC1O[C@H](CO)C(O)[C@H](O)C1O)C3` (stereo in doubt) [stevioside, Kaur-16-en-18-oic acid, 13-[(2-O-b-D-glucopyranosyl-b-D-glucopyranosyl)oxy]-, b-D-glucopyranosyl ester, (4a)-], the “triglyceride accumulation in adipocytes” value in data set [1] (50-micromolar (lowest concentration), added during the 7-days differentiation process) is “did not significantly reduce”. Further, the “lipid deposition (triglyceride accumulation) in adipocytes” value in data set [1] (200-micromolar (4x higher concentration), added during differentiation, steviol dissolved with DMSO) is recorded as “inhibited”. Moreover, the “free steviol in urine” value in data set [2] (after oral stevioside, human urine) is reported as “no free steviol can be detected”. Also, in data set [2] (three days of oral stevioside (750 mg per day), 24 h urine), the “metabolite detected in the collected urine” value is “steviol glucuronide was isolated as the only metabolite detected”. For the same molecule, the blood pressure result in data set [3] is recorded as “blood pressure reduction”.
